Data published in ChEMBL document CHEMBL6120963, “Discovery of Novel PROTAC SIRT6 Degraders with Potent Efficacy against Hepatocellular Carcinoma” (J Med Chem, 2024).
Calls of active or inactive are those of the source. No cut-off for these calls is given here.

Tests used:
[1] = target: T1, Protein cereblon/NAD-dependent protein deacylase sirtuin-6 (Homo sapiens, UniProt Q8N6T7+Q96SW2); assay: PROTAC activity at CRBN/SIRT6 in human SK-HEP1 cells assessed as induction of SIRT6 degradation incubated for 36 hrs by Western blot analysis; assay type: cell-based
Target sequence in this assay (Q8N6T7 whole entry): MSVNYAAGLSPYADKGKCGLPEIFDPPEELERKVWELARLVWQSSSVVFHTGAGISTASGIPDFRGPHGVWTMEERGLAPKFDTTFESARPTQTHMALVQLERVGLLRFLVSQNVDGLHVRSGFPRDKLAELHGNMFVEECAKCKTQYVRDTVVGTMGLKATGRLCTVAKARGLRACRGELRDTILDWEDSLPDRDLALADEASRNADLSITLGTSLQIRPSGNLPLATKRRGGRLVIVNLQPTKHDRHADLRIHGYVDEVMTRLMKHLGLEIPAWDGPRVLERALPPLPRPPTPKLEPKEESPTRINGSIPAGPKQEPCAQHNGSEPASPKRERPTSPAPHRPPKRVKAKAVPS
Target sequence in this assay (Q96SW2 whole entry): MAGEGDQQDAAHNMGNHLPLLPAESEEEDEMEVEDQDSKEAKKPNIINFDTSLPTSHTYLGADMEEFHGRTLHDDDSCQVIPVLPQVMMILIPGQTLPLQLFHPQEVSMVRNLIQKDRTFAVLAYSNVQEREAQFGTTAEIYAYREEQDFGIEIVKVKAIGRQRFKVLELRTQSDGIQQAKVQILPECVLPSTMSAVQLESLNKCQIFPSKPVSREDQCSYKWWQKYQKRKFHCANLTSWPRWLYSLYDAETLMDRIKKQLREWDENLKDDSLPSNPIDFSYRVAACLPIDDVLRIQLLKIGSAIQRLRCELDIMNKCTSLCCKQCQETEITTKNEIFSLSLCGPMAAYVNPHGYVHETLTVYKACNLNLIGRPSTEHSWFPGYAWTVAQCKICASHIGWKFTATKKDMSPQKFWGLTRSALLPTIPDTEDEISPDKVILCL

[2] = target: T1, Protein cereblon/NAD-dependent protein deacylase sirtuin-6; assay: PROTAC activity at CRBN/SIRT6 in human SK-HEP1 cells assessed as induction of SIRT6 degradation at 0.02 to 5 uM incubated for 36 hrs by Western blot analysis; assay type: cell-based; conditions: dose 0.02-5 µM
Target sequence in this assay (Q8N6T7 2-355 limits assumed): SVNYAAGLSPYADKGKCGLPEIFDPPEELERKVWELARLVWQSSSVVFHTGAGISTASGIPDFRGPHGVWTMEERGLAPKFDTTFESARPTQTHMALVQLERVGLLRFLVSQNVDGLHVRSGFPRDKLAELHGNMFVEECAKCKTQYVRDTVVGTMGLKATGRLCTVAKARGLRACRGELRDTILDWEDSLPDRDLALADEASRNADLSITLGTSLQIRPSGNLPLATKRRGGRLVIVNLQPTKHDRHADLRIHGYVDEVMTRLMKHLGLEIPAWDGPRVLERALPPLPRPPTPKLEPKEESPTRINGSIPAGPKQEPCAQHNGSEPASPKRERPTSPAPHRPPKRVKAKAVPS
Target sequence in this assay (Q96SW2 whole entry partner): as the sequence (Q96SW2 whole entry) above

SK-HEP1 [3] = assay: Effect on SIRT1 expression in human SK-HEP1 cells at 0.002 to 1 uM incubated for 36 hrs by Western blot analysis; assay type: functional, cell-based; conditions: dose 0.002-1 µM
Huh-7 [4] = assay: Effect on SIRT1 expression in human Huh-7 cells at 0.002 to 1 uM incubated for 36 hrs by Western blot analysis; assay type: functional, cell-based; conditions: dose 0.002-1 µM
SK-HEP1 [5] = assay: Effect on H3K18Ac expression in human SK-HEP1 cells at 0.002 to 1 uM incubated for 36 hrs by Western blot analysis; assay type: functional, cell-based; conditions: dose 0.002-1 µM
[6] = target: T1, Protein cereblon/NAD-dependent protein deacylase sirtuin-6; assay: PROTAC activity at CRBN/SIRT6 in human Hep3B cells assessed as induction of SIRT6 degradation incubated for 24 hrs by Western blot analysis; assay type: cell-based
Target sequence in this assay (Q8N6T7 2-355 limits assumed): as the sequence (Q8N6T7 2-355 limits assumed) above
Target sequence in this assay (Q96SW2 whole entry partner): as the sequence (Q96SW2 whole entry) above

[7] = target: T1, Protein cereblon/NAD-dependent protein deacylase sirtuin-6; assay: PROTAC activity at CRBN/SIRT6 in human SK-HEP1 cells assessed as reduction in number of SIRT6 foci incubated for about 36 hrs by immunofluorescence based analysis; assay type: cell-based; conditions: dose <= 5.0 µM
Target sequence in this assay (Q8N6T7 2-355 limits assumed): as the sequence (Q8N6T7 2-355 limits assumed) above
Target sequence in this assay (Q96SW2 whole entry partner): as the sequence (Q96SW2 whole entry) above

[8] = target: T1, Protein cereblon/NAD-dependent protein deacylase sirtuin-6; assay: PROTAC activity at CRBN/SIRT6 in human SK-HEP1 cells assessed as reduction in fluorescence intensity of SIRT6 labeling incubated for about 36 hrs by immunofluorescence based analysis; assay type: cell-based
Target sequence in this assay (Q8N6T7 2-355 limits assumed): as the sequence (Q8N6T7 2-355 limits assumed) above
Target sequence in this assay (Q96SW2 whole entry partner): as the sequence (Q96SW2 whole entry) above

[9] = target: T1, Protein cereblon/NAD-dependent protein deacylase sirtuin-6; assay: PROTAC activity at CRBN/SIRT6 in MG132-treated human SK-HEP1 cells assessed as induction of SIRT6 degradation at 2.5 uM treated for 36 hrs by Western blot analysis; assay type: cell-based
Target sequence in this assay (Q8N6T7 2-355 limits assumed): as the sequence (Q8N6T7 2-355 limits assumed) above
Target sequence in this assay (Q96SW2 whole entry partner): as the sequence (Q96SW2 whole entry) above

SK-HEP1 [10] = assay: Cytotoxicity against human SK-HEP1 cells combined with irradiation (3 Gy) incubated for 72 hrs by CCK8 assay; assay type: functional, cell-based; conditions: SK-HEP1, light or radiation study
Huh-7 [11] = assay: Inhibition of colony formation in human Huh-7 cells at 5 to 10 uM incubated for 10 to 14 days with replacement of medium containing compounds on every 3 days by crystal violet staining based analysis; assay type: functional, cell-based; conditions: dose 5-10 µM, time 10-14 day
SK-HEP1 [12] = assay: Inhibition of colony formation in human SK-HEP1 cells at 5 uM incubated for 10 to 14 days with replacement of medium containing compounds on every 3 days in presence of sorafenib by crystal violet staining based analysis; assay type: functional, cell-based; conditions: time 10-14 day
SK-HEP1 [13] = assay: Effect of SIRT6 mRNA expression in human SK-HEP1 cells at 2.5 uM incubated for 36 hrs by RT-qPCR analysis; assay type: functional, cell-based
SK-HEP1 [14] = assay: Effect of SIRT1 mRNA expression in human SK-HEP1 cells at 2.5 uM incubated for 36 hrs by RT-qPCR analysis; assay type: functional, cell-based
SK-HEP1 [15] = assay: Effect of H2BC21 mRNA expression in human SK-HEP1 cells at 2.5 uM incubated for 36 hrs by RNA sequencing analysis; assay type: functional, cell-based
SK-HEP1 [16] = assay: Effect of CSTB mRNA expression in human SK-HEP1 cells at 2.5 uM incubated for 36 hrs by RNA sequencing analysis; assay type: functional, cell-based
SK-HEP1 [17] = assay: Effect of TFRC mRNA expression in human SK-HEP1 cells at 2.5 uM incubated for 36 hrs by RNA sequencing analysis; assay type: functional, cell-based
SK-HEP1 [18] = assay: Effect of CDK15 mRNA expression in human SK-HEP1 cells at 2.5 uM incubated for 36 hrs by RNA sequencing analysis; assay type: functional, cell-based
SK-HEP1 [19] = assay: Effect of ABI3BP mRNA expression in human SK-HEP1 cells at 2.5 uM incubated for 36 hrs by RNA sequencing analysis; assay type: functional, cell-based
SK-HEP1 [20] = assay: Effect of genes related to ubiquitin-mediated proteolysis in human SK-HEP1 cells at 2.5 uM incubated for 36 hrs by GSEA analysis; assay type: functional, cell-based
SK-HEP1 [21] = assay: Downregulation of NAIF1 expression in human SK-HEP1 cells at 2.5 uM incubated for 36 hrs in presence of MG132; assay type: functional, cell-based
SK-HEP1 [22] = assay: Downregulation of CCPG1 expression in human SK-HEP1 cells at 2.5 uM incubated for 36 hrs in presence of MLN4924; assay type: functional, cell-based
SK-HEP1 [23] = assay: Downregulation of NAIF1 expression in human SK-HEP1 cells at 2.5 uM incubated for 36 hrs in presence of MLN4924; assay type: functional, cell-based
[24] = target: T1, Protein cereblon/NAD-dependent protein deacylase sirtuin-6; assay: PROTAC activity at CRBN/SIRT6 in human SK-HEP1 cells assessed as induction of SIRT6 degradation at 2.5 uM incubated for 36 hrs by Western blot analysis; assay type: cell-based
Target sequence in this assay (Q8N6T7 2-355 limits assumed): as the sequence (Q8N6T7 2-355 limits assumed) above
Target sequence in this assay (Q96SW2 whole entry partner): as the sequence (Q96SW2 whole entry) above

[25] = target: T1, Protein cereblon/NAD-dependent protein deacylase sirtuin-6; assay: PROTAC activity at CRBN/SIRT6 in human SK-HEP1 cells assessed as disruption of CHD4 recruitment to DSB sites at 2.5 uM incubated for 36 hrs followed by VP16 treatment for 4 hrs by Western blot analysis; assay type: cell-based; conditions: time 40.0 hrs
[26] = target: T1, Protein cereblon/NAD-dependent protein deacylase sirtuin-6; assay: PROTAC activity at CRBN/SIRT6 in human SK-HEP1 cells assessed as disruption of CHD4 recruitment to DSB sites at 2.5 uM incubated for 36 hrs followed by CPT treatment for 4 hrs by Western blot analysis; assay type: cell-based; conditions: time 40.0 hrs
[27] = target: T1, Protein cereblon/NAD-dependent protein deacylase sirtuin-6; assay: PROTAC activity at CRBN/SIRT6 in human SK-HEP1 cells assessed as impairment in CHD4 foci formation by immunofluorescence based analysis; assay type: cell-based
SK-HEP1 [28] = assay: Induction of DNA damage in human SK-HEP1 cells assessed as long tail moment incubated for 36 hrs followed by irradiation (10 Gy) for 6 hrs by comet assay; assay type: functional, cell-based
[29] = Toxicity in BALB/c nude mouse xenografted with human SK-HEP1 cells assessed as pathological damage in heart at 10 mg/kg treated for 28 to 30 days by H and E staining based analysis; assay type: organism-based; conditions: in vivo, time 28-30 day
[30] = Toxicity in BALB/c nude mouse xenografted with human SK-HEP1 cells assessed as pathological damage in spleen at 10 mg/kg treated for 28 to 30 days by H and E staining based analysis; assay type: organism-based; conditions: in vivo, time 28-30 day
[31] = Toxicity in BALB/c nude mouse xenografted with human SK-HEP1 cells assessed as pathological damage in kidney at 10 mg/kg treated for 28 to 30 days by H and E staining based analysis; assay type: organism-based; conditions: in vivo, time 28-30 day
[32] = Toxicity in BALB/c nude mouse xenografted with human SK-HEP1 cells assessed as pathological damage in liver at 10 mg/kg treated for 28 to 30 days in presence of sorafenib by H and E staining based analysis; assay type: organism-based; conditions: in vivo, time 28-30 day
[33] = Toxicity in BALB/c nude mouse xenografted with human SK-HEP1 cells assessed as pathological damage in spleen at 10 mg/kg treated for 28 to 30 days in presence of sorafenib by H and E staining based analysis; assay type: organism-based; conditions: in vivo, time 28-30 day
[34] = Toxicity in BALB/c nude mouse xenografted with human SK-HEP1 cells assessed as histopathological abnormalities in lungs at 10 mg/kg treated for 28 to 30 days in presence of sorafenib by H and E staining based analysis; assay type: organism-based; conditions: in vivo, time 28-30 day

SMILES: Nc1cc(N2CCN(CC3CCN(c4cc5c(cc4F)C(=O)N(C4CCC(=O)NC4=O)C5=O)CC3)CC2)ccc1[N+](=O)[O-] (centres undefined)
- DC50 [1]: 45.3 nM
- Activity [2]: Active
- Activity (SK-HEP1 [3]): No effect
- Activity (Huh-7 [4]): No effect
- Activity (SK-HEP1 [5]): No effect
- Activity [6]: Active; Reached A Plateau After 36 Hrs Of Treatment
- Activity [7]: Dose-dependent-effect
- Activity [8]: Dose-dependent-effect
- Activity [9]: Not active; Confirms That Proteosome Is Necessary For Sirt6 Degradation
- IC50 (SK-HEP1 [10]): ~450 nM
- inhibition (Huh-7 [11]): Active
- inhibition (SK-HEP1 [12]): Not active; Exhibited Weaker Inhibition
- Activity (SK-HEP1 [13]): Active; Only Slight Downregulation Observed
- Activity (SK-HEP1 [14]): No effect
- Activity (SK-HEP1 [15]): Active
- Activity (SK-HEP1 [16]): Active
- Activity (SK-HEP1 [17]): Active
- Activity (SK-HEP1 [18]): Active
- Activity (SK-HEP1 [19]): Active
- Activity (SK-HEP1 [20]): Active
- Activity (SK-HEP1 [21]): inactive
- Activity (SK-HEP1 [22]): inactive
- Activity (SK-HEP1 [23]): inactive
- Activity [24]: Active
- Activity [25]: Active
- Activity [26]: Active
- Activity [27]: Active
- Activity (SK-HEP1 [28]): Active
- Activity [29]: Non-toxic
- Activity [30]: Non-toxic
- Activity [31]: Non-toxic
- Activity [32]: Non-toxic
- Activity [33]: Non-toxic
- Activity [34]: Non-toxic
